Laboratory results taken from BindingDB's records for doi:10.1016/s0960-894x(99)00336-4 (Merck Research Laboratories, 1999).

Test: Inhibitory activity against Calcineurin (CaN phosphatase)

Row | IC50 [nM] | Compound
1 | 7.3 | CC[C@@H]1/C=C(\C)C[C@H](C)C[C@H](OC)[C@H]2O[C@@](O)(C(=O)C(=O)N3CCCC[C@H]3C(=O)O[C@H](/C(C)=C/C3CC[C@@H](OC[C@H](O)c4ccc5ccccc5c4)[C@H](OC)C3)[C@H](C)[C@H](O)CC1=O)[C@H](C)C[C@@H]2OC (stereo partly specified) [17-Ethyl-1,14-dihydroxy-12-{2-[4-(2-hydroxy-2-naphthalen-2-yl-ethoxy)-3-methoxy-cyclohexyl]-1-methyl-vinyl}-23,25-dimethoxy-13,19,21,27-tetramethyl-11,28-dioxa-4-aza-tricyclo[22.3.1.0*4,9*]octacos-18-ene-2,3,10,16-tetraone]
2 | 15 | C=CC[C@@H]1/C=C(\C)C[C@H](C)C[C@H](OC)[C@H]2O[C@@](O)(C(=O)C(=O)N3CCCC[C@H]3C(=O)O[C@H](/C(C)=C/[C@@H]3CC[C@@H](O)[C@H](OC)C3)[C@H](C)[C@@H](O)CC1=O)[C@H](C)C[C@@H]2OC [(E)-(1R,9S,12S,13R,14R,21S,23S,24R,25S,27R)-17-Allyl-1,14-dihydroxy-12-[(E)-2-((3R,4R)-4-hydroxy-3-methoxy-cyclohexyl)-1-methyl-vinyl]-23,25-dimethoxy-13,19,21,27-tetramethyl-11,28-dioxa-4-aza-tricyclo[22.3.1.0*4,9*]octacos-18-ene-2,3,10,16-tetraone]
3 | 4 | CC[C@@H]1/C=C(\C)C[C@H](C)C[C@H](OC)[C@H]2O[C@@](O)(C(=O)C(=O)N3CCCC[C@H]3C(=O)O[C@H](/C(C)=C/C3CC[C@@H](OC[C@@H](O)c4cc5ccccc5s4)[C@H](OC)C3)[C@H](C)[C@H](O)CC1=O)[C@H](C)C[C@@H]2OC (stereo partly specified) [12-{2-[4-(2-Benzo[b]thiophen-2-yl-2-hydroxy-ethoxy)-3-methoxy-cyclohexyl]-1-methyl-vinyl}-17-ethyl-1,14-dihydroxy-23,25-dimethoxy-13,19,21,27-tetramethyl-11,28-dioxa-4-aza-tricyclo[22.3.1.0*4,9*]octacos-18-ene-2,3,10,16-tetraone]
4 | 5.9 | CC[C@@H]1/C=C(\C)C[C@H](C)C[C@H](OC)[C@H]2O[C@@](O)(C(=O)C(=O)N3CCCC[C@H]3C(=O)O[C@H](/C(C)=C/C3CC[C@@H](OC[C@H](O)c4cccc(C(F)(F)F)c4)[C@H](OC)C3)[C@H](C)[C@H](O)CC1=O)[C@H](C)C[C@@H]2OC (stereo partly specified) [17-Ethyl-1,14-dihydroxy-12-(2-{4-[2-hydroxy-2-(3-trifluoromethyl-phenyl)-ethoxy]-3-methoxy-cyclohexyl}-1-methyl-vinyl)-23,25-dimethoxy-13,19,21,27-tetramethyl-11,28-dioxa-4-aza-tricyclo[22.3.1.0*4,9*]octacos-18-ene-2,3,10,16-tetraone]
5 | 7.9 | CC[C@@H]1/C=C(\C)C[C@H](C)C[C@H](OC)[C@H]2O[C@@](O)(C(=O)C(=O)N3CCCC[C@H]3C(=O)O[C@H](/C(C)=C/C3CC[C@@H](OC[C@@H](O)c4cc(C)cc(C)c4)[C@H](OC)C3)[C@H](C)[C@H](O)CC1=O)[C@H](C)C[C@@H]2OC (stereo partly specified) [12-(2-{4-[2-(3,5-Dimethyl-phenyl)-2-hydroxy-ethoxy]-3-methoxy-cyclohexyl}-1-methyl-vinyl)-17-ethyl-1,14-dihydroxy-23,25-dimethoxy-13,19,21,27-tetramethyl-11,28-dioxa-4-aza-tricyclo[22.3.1.0*4,9*]octacos-18-ene-2,3,10,16-tetraone]
6 | 8.7 | CC[C@@H]1/C=C(\C)C[C@H](C)C[C@H](OC)[C@H]2O[C@@](O)(C(=O)C(=O)N3CCCC[C@H]3C(=O)O[C@H](/C(C)=C/C3CC[C@@H](OC[C@H](O)c4cc(C)cc(C)c4)[C@H](OC)C3)[C@H](C)[C@H](O)CC1=O)[C@H](C)C[C@@H]2OC (stereo partly specified) [12-(2-{4-[2-(3,5-Dimethyl-phenyl)-2-hydroxy-ethoxy]-3-methoxy-cyclohexyl}-1-methyl-vinyl)-17-ethyl-1,14-dihydroxy-23,25-dimethoxy-13,19,21,27-tetramethyl-11,28-dioxa-4-aza-tricyclo[22.3.1.0*4,9*]octacos-18-ene-2,3,10,16-tetraone]
7 | 2.8 | CC[C@@H]1/C=C(\C)C[C@H](C)C[C@H](OC)[C@H]2O[C@@](O)(C(=O)C(=O)N3CCCC[C@H]3C(=O)O[C@H](/C(C)=C/C3CC[C@@H](OC[C@@H](O)c4ccc5ccccc5c4)[C@H](OC)C3)[C@H](C)[C@H](O)CC1=O)[C@H](C)C[C@@H]2OC (stereo partly specified) [17-Ethyl-1,14-dihydroxy-12-{2-[4-(2-hydroxy-2-naphthalen-2-yl-ethoxy)-3-methoxy-cyclohexyl]-1-methyl-vinyl}-23,25-dimethoxy-13,19,21,27-tetramethyl-11,28-dioxa-4-aza-tricyclo[22.3.1.0*4,9*]octacos-18-ene-2,3,10,16-tetraone]
8 | 4.2 | CC[C@@H]1/C=C(\C)C[C@H](C)C[C@H](OC)[C@H]2O[C@@](O)(C(=O)C(=O)N3CCCC[C@H]3C(=O)O[C@H](/C(C)=C/C3CC[C@@H](OC[C@H](O)c4cc5ccccc5s4)[C@H](OC)C3)[C@H](C)[C@H](O)CC1=O)[C@H](C)C[C@@H]2OC (stereo partly specified) [12-{2-[4-(2-Benzo[b]thiophen-2-yl-2-hydroxy-ethoxy)-3-methoxy-cyclohexyl]-1-methyl-vinyl}-17-ethyl-1,14-dihydroxy-23,25-dimethoxy-13,19,21,27-tetramethyl-11,28-dioxa-4-aza-tricyclo[22.3.1.0*4,9*]octacos-18-ene-2,3,10,16-tetraone]
9 | 4.9 | CC[C@@H]1/C=C(\C)C[C@H](C)C[C@H](OC)[C@H]2O[C@@](O)(C(=O)C(=O)N3CCCC[C@H]3C(=O)O[C@H](/C(C)=C/C3CC[C@@H](OC[C@@H](O)c4cccc(C(F)(F)F)c4)[C@H](OC)C3)[C@H](C)[C@H](O)CC1=O)[C@H](C)C[C@@H]2OC (stereo partly specified) [17-Ethyl-1,14-dihydroxy-12-(2-{4-[2-hydroxy-2-(3-trifluoromethyl-phenyl)-ethoxy]-3-methoxy-cyclohexyl}-1-methyl-vinyl)-23,25-dimethoxy-13,19,21,27-tetramethyl-11,28-dioxa-4-aza-tricyclo[22.3.1.0*4,9*]octacos-18-ene-2,3,10,16-tetraone]
10 | 8.7 | CC[C@@H]1/C=C(\C)C[C@H](C)C[C@H](OC)[C@H]2O[C@@](O)(C(=O)C(=O)N3CCCC[C@H]3C(=O)O[C@H](/C(C)=C/C3CC[C@@H](OC[C@H](O)c4ccc(F)c(F)c4)[C@H](OC)C3)[C@H](C)[C@H](O)CC1=O)[C@H](C)C[C@@H]2OC (stereo partly specified) [12-(2-{4-[2-(3,4-Difluoro-phenyl)-2-hydroxy-ethoxy]-3-methoxy-cyclohexyl}-1-methyl-vinyl)-17-ethyl-1,14-dihydroxy-23,25-dimethoxy-13,19,21,27-tetramethyl-11,28-dioxa-4-aza-tricyclo[22.3.1.0*4,9*]octacos-18-ene-2,3,10,16-tetraone]
11 | 7.3 | CC[C@@H]1/C=C(\C)C[C@H](C)C[C@H](OC)[C@H]2O[C@@](O)(C(=O)C(=O)N3CCCC[C@H]3C(=O)O[C@H](/C(C)=C/C3CC[C@@H](OC[C@@H](O)c4ccc(F)c(F)c4)[C@H](OC)C3)[C@H](C)[C@H](O)CC1=O)[C@H](C)C[C@@H]2OC (stereo partly specified) [12-(2-{4-[2-(3,4-Difluoro-phenyl)-2-hydroxy-ethoxy]-3-methoxy-cyclohexyl}-1-methyl-vinyl)-17-ethyl-1,14-dihydroxy-23,25-dimethoxy-13,19,21,27-tetramethyl-11,28-dioxa-4-aza-tricyclo[22.3.1.0*4,9*]octacos-18-ene-2,3,10,16-tetraone]
